Source: EP2891491A1, “Use of (r)-phenylpiracetam for the treatment of sleep disorders” (Merz Pharma GmbH & Co. KGaA, priority 2014, dated 2015)
“And” between values parts separate entries of the source, which are not always exact repeats. Equal entries are not always repeated.

How the values were obtained:
[1] = molecular target: T1, neuronal dopamine re-uptake transporter (Homo sapiens, UniProt Q01959); assay: functional monoamine transporter assay: [3H]-dopamine uptake in CHO-K1 cells expressing dopamine transporters; assay type: cell-based; settings: functional assays, read-out: affinity for the neuronal dopamine re-uptake transporter
T1 construct: expressed in transfected cells
T1 sequence (Q01959 whole entry): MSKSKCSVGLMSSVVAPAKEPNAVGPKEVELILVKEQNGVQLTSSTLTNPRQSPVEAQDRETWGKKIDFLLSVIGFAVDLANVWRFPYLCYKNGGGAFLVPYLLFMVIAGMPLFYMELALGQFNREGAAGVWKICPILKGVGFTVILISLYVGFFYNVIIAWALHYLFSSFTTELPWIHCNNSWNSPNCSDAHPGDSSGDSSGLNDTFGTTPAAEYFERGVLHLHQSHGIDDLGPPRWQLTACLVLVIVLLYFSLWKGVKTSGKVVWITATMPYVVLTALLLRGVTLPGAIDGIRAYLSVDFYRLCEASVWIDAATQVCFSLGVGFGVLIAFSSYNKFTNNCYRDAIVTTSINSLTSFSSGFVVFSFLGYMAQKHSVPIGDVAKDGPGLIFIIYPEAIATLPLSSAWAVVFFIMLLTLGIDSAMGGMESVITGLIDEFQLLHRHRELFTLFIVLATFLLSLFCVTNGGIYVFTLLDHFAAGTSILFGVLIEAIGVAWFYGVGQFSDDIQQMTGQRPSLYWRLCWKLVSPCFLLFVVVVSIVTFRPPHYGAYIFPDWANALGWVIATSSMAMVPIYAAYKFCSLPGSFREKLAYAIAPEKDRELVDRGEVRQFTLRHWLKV
Description: Using functional monoamine transporter assays, we determined the potential drug targets for (R)-phenylpiracetam.
Recombinant Chinese hamster ovary (CHO) cells CHO-K1 (ATCC® CCL-61 ™) cells stably expressing dopamine transporters are plated. The cells (2 x 10^5/ml) are pre-incubated with test compound and/or vehicle in modified Tris-HEPES buffer pH 7.1 at 25°C for 20 min and 50 nM [^3H]-dopamine is then added for an additional 15 min incubation period. Non-specific signal is determined in the presence of 10 µM nomifensine. Cells are then solubilized with 1% SDS lysis buffer. Reduction of [^3H]-dopamine uptake by 50 percent or more (≥50%) relative to vehicle controls indicates significant inhibitory activity. Compounds are screened at 10, 1, 0.1, 0.01 and 0.001 µM. These same concentrations are concurrently applied to a separate group of untreated cells and evaluated for possible compound-induced cytotoxicity only if significant inhibition of uptake is observed.

[2] = system: rats; assay: locomotor activity (horizontal activity) in rats; assay type: in vivo; settings: i.p. 15 min before test, starting at the dose of 100 mg/kg
Description: EXAMPLE 4: Effect of (R)-phenylpiracetam on locomotor activity (horizontal activity) in rats - Fig. 3
Experimentally naive adult male Sprague-Dawley rats (230-300 g) are kept four per cage, in a room with controlled temperature (21 ± 1°C) and humidity. Food and water are available ad libitum and the animals are kept under an alternating 12 h / 12 h day-night cycle (lights on at 07.00) for at least 6 days before the experiments are started. Each animal is used only once. Experimental group consist of 8 animals per group.
Horizontal locomotor activity was measured in 8 perspex boxes (ENV-515-16, 43.2 cm x 43.2 cm x 30 cm), Med-Associates Inc.) equipped with 4 arrays of 16 infrared photobeams placed 3 cm above the floor. Distance travelled (DT) was used in further analysis as a measure of locomotion.
(R)-Phenylpiracetam was administered i. p. in a volume of 2 ml/kg in saline
Data with locomotor activity were analyzed by means of Kruskal-Wallis ANOVA on ranks followed, if significant, by rank sum test.

[3] = system: subjects with Parkinson's Disease; assay: clinical study of EDS in Parkinson patients, Epworth Sleepiness Scale; assay type: in vivo, humans; settings: 50 mg bid for 4 weeks, oral, adjunct to L-Dopa
Description: In a prospective, randomized, double-blind, placebo-controlled, parallel group, multicenter study the tolerability, safety and efficacy of (R)-Phenylpiracetam after oral administration adjunct to L-Dopa treatment is confirmed. After a screening period of one week 36 subjects with Parkinson's Disease receive 50 mg (R)-Phenylpiracetam or placebo bid at 8.00 am and 3.00 pm for 4 weeks. A safety follow-up is performed 1 week after the double-blind treatment period. Visits take place 1 week before randomization (V1, day -7), at baseline (V2, day 1), at Week 2 (V3) and Week 4 (V4). A safety follow-up (V5) is performed 1 week after the last intake of study medication. An assessment of excessive daily sleepiness using the Epworth Sleepiness Scale [ESS] takes place at screening, baseline, week 2 and week 4.
The questionnaire asks the subject to rate his or her probability of falling asleep on a scale of increasing probability from 0 to 3 for 8 different situations that most people engage in during their daily lives, though not necessarily every day (Johns et al. J Neurol Neurosurg Psychiatry. 2005;76(12):1636). The scores for the 8 questions are added together to obtain a single number. […]
The absolute change of ESS from day 1 to day 14 and 28 is analyzed.

[4] = just slightly stronger with (R)- than with (S)-phenylpiracetam; cited from earlier work

## NC(=O)CN1C[C@@H](c2ccccc2)CC1=O [(R)-phenylpiracetam]
[1]
  IC50: ~13 µM and 13 µM
[2]
  locomotor activity (horizontal activity): increases locomotor activity
[3]
  improvement of ESS (absolute change from day 1 to day 14 and 28): at least 3 points
[4]
  locomotor activity in the open-field test: significant increase
